Laboratory results from PMC9877316, “Identification of a novel P2X7 antagonist using structure-based virtual screening” (Frontiers in Pharmacology, 2023).

Experiments:
rat P2X7 = biological target: T1, rat P2X7 (Rattus norvegicus, UniProt Q64663); experiment: ATP/BzATP-induced YoPro-1 dye uptake assay, rat P2X7; format: cell-based
T1 construct: expressed in transfected cells; host or cells: HEK-293 cells stably expressing rat P2X7-GFP (patch clamp)
T1 sequence (Q64663 1-595): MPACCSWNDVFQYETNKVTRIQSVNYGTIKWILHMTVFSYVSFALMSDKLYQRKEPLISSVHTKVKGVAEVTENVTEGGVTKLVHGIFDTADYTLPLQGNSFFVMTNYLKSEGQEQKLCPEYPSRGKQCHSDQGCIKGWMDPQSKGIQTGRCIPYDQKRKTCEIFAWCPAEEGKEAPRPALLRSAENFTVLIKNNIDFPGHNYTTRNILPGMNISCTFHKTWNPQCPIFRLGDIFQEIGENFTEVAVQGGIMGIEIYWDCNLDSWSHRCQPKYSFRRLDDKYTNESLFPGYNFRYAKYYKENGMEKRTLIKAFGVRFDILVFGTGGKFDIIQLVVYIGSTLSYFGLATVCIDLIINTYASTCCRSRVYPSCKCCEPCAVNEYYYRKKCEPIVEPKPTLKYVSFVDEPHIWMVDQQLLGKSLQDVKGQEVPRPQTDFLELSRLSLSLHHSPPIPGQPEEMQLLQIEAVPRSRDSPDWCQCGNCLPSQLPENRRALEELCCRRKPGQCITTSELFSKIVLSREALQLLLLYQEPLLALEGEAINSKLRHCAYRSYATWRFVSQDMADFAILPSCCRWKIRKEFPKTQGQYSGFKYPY
Description: 1321N1 astrocytoma cells and HEK-293 cells were cultured (at 37°C, 5% CO2) in Dulbecco’s modified Eagle’s medium (DMEM/F-12 with Glutamax) supplemented with 10% foetal bovine serum (FBS) and 200 unit/ml of penicillin and streptomycin antibiotics (Fisher Scientific). For stable cell line generation, cells were transfected using FuGene HD Transfection Reagent (Promega) according to the manufacturer’s protocol with plasmids encoding either human P2X4 with a C-terminal (His)10 tag ([Young et al., 2008]), human P2X7 with a C-terminal EYMPME tag (kindly provided by R.A. North) or rat P2X7 C-terminally tagged with a GFP-(His)8 tag, generated by PCR amplification of the coding sequence for rat P2X7 from a pcDNA-based expression vector ([Young et al., 2007]), adding XhoI and EcoRI sites at the 5′- and 3′- ends respectively, followed by restriction digestion and ligation into a zebrafish P2X4-GFP expression vector based on pEGFP-C1 (kindly provided by Eric Gouaux; [Kawate and Gouaux, 2006]) to replace the zebrafish P2X4 coding region with rP2X7. Transfected clones were grown in DMEM/F-12 with Glutamax medium supplemented with G-418 (Geneticin®, Fisher Scientific), 600 μg/ml and 150 μg/ml during selection and maintenance respectively. […] HEK-293 cells stably expressing human P2X7 ([Adinolfi et al., 2010]) were a kind gift from Elena Adinolfi.
Cells were plated as for the calcium influx assay (Section 2.4). Culture medium was replaced with low divalent cation containing extracellular solution (ECS-LD; 147 mM NaCl, 10 mM HEPES, 13 mM Glucose, .2 mM CaCl2, 2 mM KCl. pH = 7.4 in MilliQ water) and 5 μM Yopro-1. […] The baseline was measured with a BMG Clariostar instrument for 5–10 cycles, followed by addition of ATP (or BzATP) and recording for at least 30 further cycles (approx. 1 min per data point). The collected responses were normalized to the first data-point recorded after ATP addition. The initial gradient of the dye uptake curve was used to calculate the response to ATP.
In order to confirm GP-25 as a competitive (orthosteric) antagonist, BzATP concentration-response curves (ranging between 300 μM and .03 µM) were constructed for rat P2X7-GFP in the YoPro-1 uptake assay in the presence of increasing concentrations of GP-25 (Figure 3A).

HEK-293 = experiment: CellTiter-Blue cell viability assay; format: cell-based, human; conditions: 30 µM compound; 24 h incubation; HEK-293 wild-type
Description: To assess hit compound toxicity, CellTiter-Blue Cell Viability Assay (Promega, Southampton, United Kingdom) was used as recommended by the manufacturer on not transfected HEK-293. Cells were seeded in 96-well plates (100 μL at a concentration of 30–35,000 cells/ml) in culture media and a day later media was replaced with 100 µL fresh media containing 30 µM of tested compounds (10 µM of A740003). After 24 h incubation at 37 °C, 5% CO2, 20 µL of CellTiter Blue reagent was added to each well and incubated for 3 h at 37°C. Fluorescence was then measured with a BMG Clariostar using excitation/emission wavelengths of 560/590 nm. Data were normalized to vehicle control-treated cells (.1% DMSO).

Schild plot slope (rat P2X7; BzATP concentration-response curves, rat P2X7-GFP, increasing GP-25 up to 100 µM): 1.004 ± .2584
mode of antagonism (Schild analysis) (rat P2X7; BzATP, rat P2X7-GFP, YoPro-1): competitive (orthosteric) antagonism
IC50 (rat P2X7; YoPro-1 uptake, 300 µM ATP): 24.4 µM
inhibition at 30 µM (rat P2X7; approx. % inhibition at 30 μM compound, 300 µM ATP, YoPro-1 uptake, rat P2X7-GFP, read-out: % Inhibition at rP2X7): 47%
Compound: COC(=O)C1=C(C)NC2=C(C(=O)c3ccccc32)C1c1cc(Br)ccc1OCC(=O)O (centres unmarked) [Compound 9, (4-bromo-2-(3-(methoxycarbonyl)-2-methyl-5-oxo-4,5-dihydro-1H-indeno(1,2-b)pyridine-4-yl)phenoxy)acetic acid]
cell viability (HEK-293): did not significantly reduce cell viability
